{"source": "paper PMC6540285", "about": "“Evaluation of Protein Kinase Inhibitors with PLK4 Cross-Over Potential in a Pre-Clinical Model of Cancer” (International Journal of Molecular Sciences, 2019)", "key": {"STK16 (PKL12)": {"target": "STK16 (PKL12) (Homo sapiens, UniProt O75716)", "sequence (O75716 whole entry)": "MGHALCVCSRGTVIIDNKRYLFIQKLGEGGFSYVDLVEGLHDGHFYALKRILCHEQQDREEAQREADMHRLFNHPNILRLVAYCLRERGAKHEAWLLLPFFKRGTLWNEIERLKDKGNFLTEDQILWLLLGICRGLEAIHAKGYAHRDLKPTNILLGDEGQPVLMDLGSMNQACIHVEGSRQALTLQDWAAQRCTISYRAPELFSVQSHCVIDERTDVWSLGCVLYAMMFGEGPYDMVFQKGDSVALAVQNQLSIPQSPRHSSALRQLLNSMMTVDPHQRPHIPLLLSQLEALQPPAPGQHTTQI", "experiment": "SelectScreen kinase profiling, LanthaScreen binding"}, "RIPK2": {"target": "RIPK2 (Homo sapiens, UniProt O43353)", "experiment": "SelectScreen kinase profiling, LanthaScreen binding", "conditions": "RIPK2, 10 µM"}, "KIT": {"target": "KIT (Homo sapiens, UniProt P10721)", "experiment": "SelectScreen kinase profiling, ZLYTE", "type": "biochemical"}, "FLT3 D835Y": {"target": "FLT3 D835Y (Homo sapiens, UniProt P36888, D835Y)", "experiment": "SelectScreen kinase profiling, ZLYTE", "type": "biochemical"}, "CSNK2A1 (CK2 alpha 1)": {"target": "CSNK2A1 (CK2 alpha 1) (Homo sapiens, UniProt P68400)", "experiment": "SelectScreen kinase profiling, ZLYTE", "type": "biochemical"}, "FER": {"target": "FER (Homo sapiens, UniProt P16591)", "experiment": "SelectScreen kinase profiling, ZLYTE", "type": "biochemical"}, "RPS6KA2 (RSK3)": {"target": "RPS6KA2 (RSK3) (Homo sapiens, UniProt Q15349)", "sequence (Q15349 whole entry)": "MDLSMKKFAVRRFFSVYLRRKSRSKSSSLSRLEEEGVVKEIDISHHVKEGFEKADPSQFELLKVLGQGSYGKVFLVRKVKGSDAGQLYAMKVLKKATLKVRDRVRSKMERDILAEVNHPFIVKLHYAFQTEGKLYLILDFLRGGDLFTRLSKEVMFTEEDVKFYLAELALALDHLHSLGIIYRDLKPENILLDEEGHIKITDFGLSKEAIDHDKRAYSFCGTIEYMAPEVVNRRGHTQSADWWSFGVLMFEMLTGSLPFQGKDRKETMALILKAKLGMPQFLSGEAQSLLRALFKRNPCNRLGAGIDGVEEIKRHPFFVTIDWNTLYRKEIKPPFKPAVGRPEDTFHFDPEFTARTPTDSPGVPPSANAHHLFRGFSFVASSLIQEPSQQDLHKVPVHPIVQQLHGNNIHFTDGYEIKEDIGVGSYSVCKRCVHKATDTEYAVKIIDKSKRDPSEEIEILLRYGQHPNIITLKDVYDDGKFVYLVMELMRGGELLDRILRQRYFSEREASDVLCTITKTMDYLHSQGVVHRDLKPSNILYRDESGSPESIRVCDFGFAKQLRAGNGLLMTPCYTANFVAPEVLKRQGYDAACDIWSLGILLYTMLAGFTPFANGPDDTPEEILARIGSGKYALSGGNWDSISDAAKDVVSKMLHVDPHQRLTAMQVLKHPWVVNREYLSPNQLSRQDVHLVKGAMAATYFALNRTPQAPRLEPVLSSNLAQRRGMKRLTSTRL", "experiment": "SelectScreen kinase profiling, ZLYTE", "type": "biochemical"}, "CAMK2G (CaMKII gamma)": {"target": "CAMK2G (CaMKII gamma) (Homo sapiens, UniProt Q13555)", "experiment": "SelectScreen kinase profiling, LanthaScreen binding"}, "PAK4": {"target": "PAK4 (Homo sapiens, UniProt O96013)", "sequence (O96013 whole entry)": "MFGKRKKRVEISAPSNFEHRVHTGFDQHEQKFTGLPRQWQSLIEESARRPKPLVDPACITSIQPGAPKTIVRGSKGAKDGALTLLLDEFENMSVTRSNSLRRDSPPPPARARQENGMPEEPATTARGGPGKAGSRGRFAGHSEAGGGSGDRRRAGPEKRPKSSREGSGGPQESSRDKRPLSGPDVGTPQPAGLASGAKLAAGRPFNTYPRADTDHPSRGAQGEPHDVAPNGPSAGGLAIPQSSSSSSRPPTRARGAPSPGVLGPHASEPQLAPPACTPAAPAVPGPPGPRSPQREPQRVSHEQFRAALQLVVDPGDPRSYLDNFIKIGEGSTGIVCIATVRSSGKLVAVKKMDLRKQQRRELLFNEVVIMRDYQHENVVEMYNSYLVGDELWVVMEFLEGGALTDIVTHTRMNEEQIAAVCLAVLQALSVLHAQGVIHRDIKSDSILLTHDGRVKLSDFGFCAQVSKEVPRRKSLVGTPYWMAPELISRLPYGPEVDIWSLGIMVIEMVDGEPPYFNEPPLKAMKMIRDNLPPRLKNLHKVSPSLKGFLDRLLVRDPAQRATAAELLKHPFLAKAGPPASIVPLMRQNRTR", "experiment": "SelectScreen kinase profiling, ZLYTE", "type": "biochemical", "conditions": "PAK4, 10 µM"}, "[1]": {"target": "MAPK14 (p38 alpha) Direct (Homo sapiens, UniProt Q16539)", "sequence (Q16539 whole entry)": "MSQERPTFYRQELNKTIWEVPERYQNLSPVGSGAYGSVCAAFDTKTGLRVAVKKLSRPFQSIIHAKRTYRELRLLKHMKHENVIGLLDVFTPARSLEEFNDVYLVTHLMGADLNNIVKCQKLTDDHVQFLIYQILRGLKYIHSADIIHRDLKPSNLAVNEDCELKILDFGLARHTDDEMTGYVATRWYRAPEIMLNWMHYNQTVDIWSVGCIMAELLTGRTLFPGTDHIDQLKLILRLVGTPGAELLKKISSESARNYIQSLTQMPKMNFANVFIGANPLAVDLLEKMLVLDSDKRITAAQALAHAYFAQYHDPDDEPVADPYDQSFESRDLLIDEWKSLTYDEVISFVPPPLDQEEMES", "experiment": "SelectScreen kinase profiling, ZLYTE", "type": "biochemical"}, "NIM1K": {"target": "NIM1K (Homo sapiens, UniProt Q8IY84)", "experiment": "SelectScreen kinase profiling, ZLYTE", "type": "biochemical"}, "RPS6KA4 (MSK2)": {"target": "RPS6KA4 (MSK2) (Homo sapiens, UniProt O75676)", "experiment": "SelectScreen kinase profiling, ZLYTE", "type": "biochemical"}, "CDC42 BPA (MRCKA)": {"target": "CDC42 BPA (MRCKA) (Homo sapiens, UniProt Q5VT25)", "sequence (Q5VT25 whole entry)": "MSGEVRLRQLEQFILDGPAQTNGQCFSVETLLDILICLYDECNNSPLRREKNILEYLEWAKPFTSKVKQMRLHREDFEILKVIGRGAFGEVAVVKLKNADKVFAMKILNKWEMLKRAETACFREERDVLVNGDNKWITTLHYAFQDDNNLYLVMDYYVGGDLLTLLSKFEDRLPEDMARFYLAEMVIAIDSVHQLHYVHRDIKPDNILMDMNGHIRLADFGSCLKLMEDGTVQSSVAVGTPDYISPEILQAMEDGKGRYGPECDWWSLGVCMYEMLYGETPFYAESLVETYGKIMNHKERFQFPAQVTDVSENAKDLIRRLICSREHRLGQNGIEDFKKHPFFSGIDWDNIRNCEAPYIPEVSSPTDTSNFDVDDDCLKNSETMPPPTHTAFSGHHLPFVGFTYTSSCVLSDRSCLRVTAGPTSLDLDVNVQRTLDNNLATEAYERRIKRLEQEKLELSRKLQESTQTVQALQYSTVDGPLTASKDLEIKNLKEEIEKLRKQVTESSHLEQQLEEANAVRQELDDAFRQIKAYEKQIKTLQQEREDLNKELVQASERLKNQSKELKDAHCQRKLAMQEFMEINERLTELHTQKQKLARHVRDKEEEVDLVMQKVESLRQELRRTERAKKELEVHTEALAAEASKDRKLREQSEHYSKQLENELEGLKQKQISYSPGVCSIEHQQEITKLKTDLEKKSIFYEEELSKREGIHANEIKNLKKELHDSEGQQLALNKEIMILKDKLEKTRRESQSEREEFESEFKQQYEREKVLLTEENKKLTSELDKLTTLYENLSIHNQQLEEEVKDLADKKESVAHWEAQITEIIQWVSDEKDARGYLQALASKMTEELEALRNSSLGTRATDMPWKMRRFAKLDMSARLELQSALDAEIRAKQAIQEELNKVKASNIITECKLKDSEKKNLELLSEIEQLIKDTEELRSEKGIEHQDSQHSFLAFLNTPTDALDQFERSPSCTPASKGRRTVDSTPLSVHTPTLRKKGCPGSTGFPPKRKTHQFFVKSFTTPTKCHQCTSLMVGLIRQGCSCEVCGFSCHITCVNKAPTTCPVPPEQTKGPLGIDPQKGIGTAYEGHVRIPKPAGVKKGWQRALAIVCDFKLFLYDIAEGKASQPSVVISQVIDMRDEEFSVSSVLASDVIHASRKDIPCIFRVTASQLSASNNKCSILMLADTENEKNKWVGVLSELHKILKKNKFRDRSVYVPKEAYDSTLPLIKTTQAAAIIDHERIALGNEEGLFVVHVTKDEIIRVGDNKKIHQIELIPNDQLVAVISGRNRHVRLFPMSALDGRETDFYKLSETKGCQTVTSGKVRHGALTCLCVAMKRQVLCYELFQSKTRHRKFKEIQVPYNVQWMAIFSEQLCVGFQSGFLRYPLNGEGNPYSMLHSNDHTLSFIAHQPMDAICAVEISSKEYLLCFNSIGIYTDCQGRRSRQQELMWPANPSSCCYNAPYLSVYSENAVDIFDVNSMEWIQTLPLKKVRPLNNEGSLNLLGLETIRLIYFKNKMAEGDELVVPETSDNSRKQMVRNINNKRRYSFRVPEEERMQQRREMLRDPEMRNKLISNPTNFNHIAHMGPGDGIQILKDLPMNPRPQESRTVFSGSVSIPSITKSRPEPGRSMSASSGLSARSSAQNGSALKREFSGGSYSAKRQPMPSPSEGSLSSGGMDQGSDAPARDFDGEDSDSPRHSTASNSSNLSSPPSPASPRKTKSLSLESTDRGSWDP", "experiment": "SelectScreen kinase profiling, ZLYTE", "type": "biochemical"}, "SPHK1": {"target": "SPHK1 (Homo sapiens, UniProt Q9NYA1)", "experiment": "SelectScreen kinase profiling, Adapta", "type": "biochemical", "conditions": "SPHK1, 10 µM"}, "MASTL": {"target": "MASTL (Homo sapiens, UniProt Q96GX5)", "experiment": "SelectScreen kinase profiling, LanthaScreen binding"}, "P450 2J2": {"target": "P450 2J2 (Homo sapiens, UniProt P51589)", "experiment": "SelectScreen P450 Vivid biochemical assay", "conditions": "10000nM; substrate MOBFC"}, "ADRBK1 (GRK2)": {"target": "ADRBK1 (GRK2) (Homo sapiens, UniProt P25098)", "experiment": "SelectScreen kinase profiling, ZLYTE", "type": "biochemical"}, "EIF2AK2 (PKR)": {"target": "EIF2AK2 (PKR) (Homo sapiens, UniProt P19525)", "experiment": "SelectScreen kinase profiling, LanthaScreen binding"}, "AMPK (A2/B2/G1)": {"target": "AMPK (A2/B2/G1) (Homo sapiens, UniProt P54646)", "experiment": "SelectScreen kinase profiling, LanthaScreen binding"}, "ABL1 E255K": {"target": "ABL1 E255K (Homo sapiens, UniProt P00519, E255K)", "experiment": "SelectScreen kinase profiling, ZLYTE", "type": "biochemical"}, "IRAK4": {"target": "IRAK4 (Homo sapiens, UniProt Q9NWZ3)", "sequence (Q9NWZ3 whole entry)": "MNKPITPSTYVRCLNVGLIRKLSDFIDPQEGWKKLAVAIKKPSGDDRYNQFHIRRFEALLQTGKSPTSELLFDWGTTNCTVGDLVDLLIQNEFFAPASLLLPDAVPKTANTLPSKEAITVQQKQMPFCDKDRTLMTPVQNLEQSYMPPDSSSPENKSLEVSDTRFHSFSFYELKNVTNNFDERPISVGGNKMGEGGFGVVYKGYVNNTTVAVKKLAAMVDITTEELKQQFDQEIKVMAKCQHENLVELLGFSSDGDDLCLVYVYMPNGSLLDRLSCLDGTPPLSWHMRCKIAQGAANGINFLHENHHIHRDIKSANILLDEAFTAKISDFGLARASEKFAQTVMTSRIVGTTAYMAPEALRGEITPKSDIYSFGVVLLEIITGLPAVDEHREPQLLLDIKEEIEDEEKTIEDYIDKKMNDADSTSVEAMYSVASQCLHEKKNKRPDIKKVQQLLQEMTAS", "experiment": "SelectScreen kinase profiling, ZLYTE", "type": "biochemical", "conditions": "IRAK4, 10 µM"}, "PRKX": {"target": "PRKX (Homo sapiens, UniProt P51817)", "experiment": "SelectScreen kinase profiling, ZLYTE", "type": "biochemical"}, "LYN B": {"target": "LYN B (Homo sapiens, UniProt P07948)", "experiment": "SelectScreen kinase profiling, ZLYTE", "type": "biochemical"}, "ABL1 T315I": {"target": "ABL1 T315I (Homo sapiens, UniProt P00519, T315I)", "experiment": "SelectScreen kinase profiling, ZLYTE", "type": "biochemical"}, "LATS2": {"target": "LATS2 (Homo sapiens, UniProt Q9NRM7)", "experiment": "SelectScreen kinase profiling, LanthaScreen binding", "conditions": "LATS2, 10 µM"}, "PIK3C2A (PI3K-C2 alpha)": {"target": "PIK3C2A (PI3K-C2 alpha) (Homo sapiens, UniProt O00443)", "experiment": "SelectScreen kinase profiling, Adapta", "type": "biochemical"}, "RET": {"target": "RET (Homo sapiens, UniProt P07949)", "experiment": "SelectScreen kinase profiling, ZLYTE", "type": "biochemical"}, "PIP5K1C": {"target": "PIP5K1C (Homo sapiens, UniProt O60331)", "experiment": "SelectScreen kinase profiling, Adapta", "type": "biochemical"}, "PRKACG (PRKAC gamma)": {"target": "PRKACG (PRKAC gamma) (Homo sapiens, UniProt P22612)", "sequence (P22612 whole entry)": "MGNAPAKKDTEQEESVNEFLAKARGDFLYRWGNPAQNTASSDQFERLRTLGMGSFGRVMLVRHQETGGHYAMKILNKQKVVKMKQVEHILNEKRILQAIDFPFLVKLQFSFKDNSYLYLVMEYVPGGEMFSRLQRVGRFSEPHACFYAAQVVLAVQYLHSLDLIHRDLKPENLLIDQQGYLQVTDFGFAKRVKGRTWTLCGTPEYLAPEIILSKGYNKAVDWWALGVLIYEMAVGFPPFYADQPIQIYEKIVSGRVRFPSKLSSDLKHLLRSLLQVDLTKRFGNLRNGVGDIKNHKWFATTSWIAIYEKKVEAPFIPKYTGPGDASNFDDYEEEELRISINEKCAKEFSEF", "experiment": "SelectScreen kinase profiling, LanthaScreen binding"}, "NTRK1 (TRKA)": {"target": "NTRK1 (TRKA) (Homo sapiens, UniProt P04629)", "experiment": "SelectScreen kinase profiling, ZLYTE", "type": "biochemical"}, "LIMK1": {"target": "LIMK1 (Homo sapiens, UniProt P53667)", "experiment": "SelectScreen kinase profiling, LanthaScreen binding", "conditions": "LIMK1, 10 µM"}, "MAP3K8 (COT)": {"target": "MAP3K8 (COT) (Homo sapiens, UniProt P41279)", "experiment": "SelectScreen kinase profiling, ZLYTE", "type": "biochemical"}, "D283 cells": {"tested_on": "D283 cells", "type": "cell-based", "conditions": "D283, read-out: MTT: IC50 of the proliferation assay"}, "PRKG1": {"target": "PRKG1 (Homo sapiens, UniProt Q13976)", "experiment": "SelectScreen kinase profiling, ZLYTE", "type": "biochemical", "conditions": "PRKG1, 10 µM"}, "P450 3A5": {"target": "P450 3A5 (Homo sapiens, UniProt P20815)", "sequence (P20815 whole entry)": "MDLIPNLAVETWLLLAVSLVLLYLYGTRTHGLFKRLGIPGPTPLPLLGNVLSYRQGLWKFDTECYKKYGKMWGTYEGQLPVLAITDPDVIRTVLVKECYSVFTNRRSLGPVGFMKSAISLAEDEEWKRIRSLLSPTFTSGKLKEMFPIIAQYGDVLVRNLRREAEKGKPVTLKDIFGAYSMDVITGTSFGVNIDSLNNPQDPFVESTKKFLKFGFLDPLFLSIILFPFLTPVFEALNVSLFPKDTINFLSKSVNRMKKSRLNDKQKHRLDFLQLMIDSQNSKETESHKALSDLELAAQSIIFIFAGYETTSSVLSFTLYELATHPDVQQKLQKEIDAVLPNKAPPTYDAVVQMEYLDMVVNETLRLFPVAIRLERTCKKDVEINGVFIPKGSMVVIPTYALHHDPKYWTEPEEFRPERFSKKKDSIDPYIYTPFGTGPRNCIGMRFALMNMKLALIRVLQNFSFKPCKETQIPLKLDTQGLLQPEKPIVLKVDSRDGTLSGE", "experiment": "SelectScreen P450 Vivid biochemical assay", "conditions": "10000nM"}, "BLK": {"target": "BLK (Homo sapiens, UniProt P51451)", "experiment": "SelectScreen kinase profiling, ZLYTE", "type": "biochemical"}, "PDGFRA D842V": {"target": "PDGFRA D842V (Homo sapiens, UniProt P16234, D842V)", "experiment": "SelectScreen kinase profiling, ZLYTE", "type": "biochemical"}, "KIT D820E": {"target": "KIT D820E (Homo sapiens, UniProt P10721, D820E)", "experiment": "SelectScreen kinase profiling, LanthaScreen binding"}, "STK17B (DRAK2)": {"target": "STK17B (DRAK2) (Homo sapiens, UniProt O94768)", "experiment": "SelectScreen kinase profiling, LanthaScreen binding"}, "ADRBK2 (GRK3)": {"target": "ADRBK2 (GRK3) (Homo sapiens, UniProt P35626)", "experiment": "SelectScreen kinase profiling, ZLYTE", "type": "biochemical"}}, "note": "pIC50: −log10 of the molar value."}
{"molecule": "O=C(c1ccc(/C=C/c2n[nH]c3ccccc23)cc1)N1CCNCC1", "note": "[KW-2449]", "values": [{"measurement": "inhibition at 10 µM", "setting": "STK16 (PKL12)", "value": 83, "unit": "%"}, {"measurement": "inhibition at 10 µM", "setting": "RIPK2", "value": 77, "unit": "%"}, {"measurement": "inhibition at 10 µM", "setting": "KIT", "value": 91, "unit": "%"}, {"measurement": "inhibition at 10 µM", "setting": "FLT3 D835Y", "value": 100, "unit": "%"}, {"measurement": "inhibition at 10 µM", "setting": "CSNK2A1 (CK2 alpha 1)", "value": 18, "unit": "%"}, {"measurement": "inhibition at 10 µM", "setting": "FER", "value": 98, "unit": "%"}, {"measurement": "inhibition at 10 µM", "setting": "RPS6KA2 (RSK3)", "value": 96, "unit": "%"}, {"measurement": "inhibition at 10 µM", "setting": "CAMK2G (CaMKII gamma)", "value": -110, "unit": "%"}, {"measurement": "inhibition at 10 µM", "setting": "PAK4", "value": 94, "unit": "%"}, {"measurement": "inhibition at 10 µM", "setting": "[1]", "value": 44, "unit": "%"}, {"measurement": "inhibition at 10 µM", "setting": "NIM1K", "value": 79, "unit": "%"}, {"measurement": "inhibition at 10 µM", "setting": "RPS6KA4 (MSK2)", "value": 75, "unit": "%"}, {"measurement": "inhibition at 10 µM", "setting": "CDC42 BPA (MRCKA)", "value": 32, "unit": "%"}, {"measurement": "inhibition at 10 µM", "setting": "SPHK1", "value": 17, "unit": "%"}, {"measurement": "inhibition at 10 µM", "setting": "MASTL", "value": 83, "unit": "%"}, {"measurement": "% Inhibition 2J2 MOBFC", "setting": "P450 2J2", "value": 96, "unit": "%"}, {"measurement": "inhibition at 10 µM", "setting": "ADRBK1 (GRK2)", "value": 38, "unit": "%"}, {"measurement": "inhibition at 10 µM", "setting": "EIF2AK2 (PKR)", "value": 7, "unit": "%"}, {"measurement": "inhibition at 10 µM", "setting": "AMPK (A2/B2/G1)", "value": 75, "unit": "%"}, {"measurement": "inhibition at 10 µM", "setting": "ABL1 E255K", "value": 99, "unit": "%"}, {"measurement": "inhibition at 10 µM", "setting": "IRAK4", "value": 77, "unit": "%"}, {"measurement": "inhibition at 10 µM", "setting": "PRKX", "value": 96, "unit": "%"}, {"measurement": "inhibition at 10 µM", "setting": "LYN B", "value": 94, "unit": "%"}, {"measurement": "inhibition at 10 µM", "setting": "ABL1 T315I", "value": 101, "unit": "%"}, {"measurement": "inhibition at 10 µM", "setting": "LATS2", "value": 68, "unit": "%"}, {"measurement": "inhibition at 10 µM", "setting": "PIK3C2A (PI3K-C2 alpha)", "value": 4, "unit": "%"}, {"measurement": "inhibition at 10 µM", "setting": "RET", "value": 101, "unit": "%"}, {"measurement": "inhibition at 10 µM", "setting": "PIP5K1C", "value": 7, "unit": "%"}, {"measurement": "inhibition at 10 µM", "setting": "PRKACG (PRKAC gamma)", "value": 18, "unit": "%"}, {"measurement": "inhibition at 10 µM", "setting": "NTRK1 (TRKA)", "value": 98, "unit": "%"}, {"measurement": "inhibition at 10 µM", "setting": "LIMK1", "value": 32, "unit": "%"}, {"measurement": "inhibition at 10 µM", "setting": "MAP3K8 (COT)", "value": 54, "unit": "%"}, {"measurement": "pIC50", "setting": "D283 cells", "value": 5.09}, {"measurement": "inhibition at 10 µM", "setting": "PRKG1", "value": 77, "unit": "%"}, {"measurement": "% Inhibition 3A5 BOMCC", "setting": "P450 3A5; substrate BOMCC", "value": 14, "unit": "%"}, {"measurement": "% Inhibition 3A5 DBOMF", "setting": "P450 3A5; substrate DBOMF", "value": 10, "unit": "%"}, {"measurement": "inhibition at 10 µM", "setting": "BLK", "value": 89, "unit": "%"}, {"measurement": "inhibition at 10 µM", "setting": "PDGFRA D842V", "value": 98, "unit": "%"}, {"measurement": "inhibition at 10 µM", "setting": "KIT D820E", "value": 81, "unit": "%"}, {"measurement": "inhibition at 10 µM", "setting": "STK17B (DRAK2)", "value": 58, "unit": "%"}, {"measurement": "inhibition at 10 µM", "setting": "ADRBK2 (GRK3)", "value": 31, "unit": "%"}]}
